Assay results taken from patent US10844077B2, “Thiazolyl-containing compounds for treating proliferative diseases” (Dana-Farber Cancer Institute, Inc., priority 2014, dated 2020).
Like-named read-outs stand apart in the source and are kept apart here.

Legend:
Format in all cases: binding
[1] = target: broad panel of kinases (Homo sapiens, UniProt Q06187); settings: BTK; 1 μM
[2] = target: broad panel of kinases (Homo sapiens, UniProt P42336, E545K); settings: PIK3CA(E545K); 1 μM
[3] = target: broad panel of kinases (Homo sapiens, UniProt Q00537); settings: PCTK2; 1 μM
[4] = target: broad panel of kinases (Homo sapiens, UniProt Q8TDX7); settings: NEK7; 1 μM
[5] = target: broad panel of kinases (Homo sapiens, UniProt Q15831); settings: LKB1; 1 μM
[6] = target: broad panel of kinases (Homo sapiens, UniProt P36888); settings: 1 μM
[7] = target: broad panel of kinases (Homo sapiens, UniProt O94806); settings: PRKD3; 1 μM
[8] = target: broad panel of kinases (Homo sapiens, UniProt P53778); settings: p38-gamma; 1 μM
[9] = target: broad panel of kinases (Homo sapiens, UniProt P06241); settings: FYN; 1 μM
[10] = target: broad panel of kinases (Homo sapiens, UniProt P49761); settings: CLK3; 1 μM
[11] = target: broad panel of kinases (Homo sapiens, UniProt Q99558); settings: NIK; 1 μM
[12] = target: broad panel of kinases (Homo sapiens, UniProt Q9H093); settings: SNARK; 1 μM
[13] = target: broad panel of kinases (Homo sapiens, UniProt Q9UHD2); settings: TBK1; 1 μM
[14] = target: broad panel of kinases (Homo sapiens, UniProt Q5VT25); settings: MRCKA; 1 μM
[15] = target: broad panel of kinases (Homo sapiens, UniProt Q16539); settings: p38-alpha; 1 μM
[16] = target: broad panel of kinases (Homo sapiens, UniProt P12931); settings: SRC; 1 μM
[17] = target: broad panel of kinases (Homo sapiens, UniProt Q08345); settings: DDR1; 1 μM
[18] = target: broad panel of kinases (Homo sapiens, UniProt Q9UK32); settings: 1 μM
[19] = target: broad panel of kinases (Homo sapiens, UniProt P00519, E255K); settings: ABL1(E255K)-phosphorylated; 1 μM
[20] = target: broad panel of kinases (Homo sapiens, UniProt Q8TBX8); settings: PIP5K2C; 1 μM
[21] = target: broad panel of kinases (Homo sapiens, UniProt O94804); settings: LOK; 1 μM
[22] = target: broad panel of kinases (Homo sapiens, UniProt Q32MK0); settings: MLCK; 1 μM
[23] = target: broad panel of kinases (Homo sapiens, UniProt P08069); settings: IGF1R; 1 μM
[24] = target: broad panel of kinases (Homo sapiens, UniProt P37173); settings: TGFBR2; 1 μM
[25] = target: broad panel of kinases (Homo sapiens, UniProt Q15139); settings: PRKD1; 1 μM
[26] = target: broad panel of kinases (Homo sapiens, UniProt P36507); settings: MEK2; 1 μM
[27] = target: broad panel of kinases (Homo sapiens, UniProt P31749); settings: AKT1; 1 μM
[28] = target: broad panel of kinases (Homo sapiens, UniProt Q2M2I8); settings: AAK1; 1 μM
[29] = target: broad panel of kinases (Homo sapiens, UniProt Q13555); settings: CAMK2G; 1 μM
[30] = target: broad panel of kinases (Homo sapiens, UniProt P29376); settings: LTK; 1 μM
[31] = target: broad panel of kinases (Homo sapiens, UniProt Q13976); settings: PRKG1; 1 μM
[32] = target: broad panel of kinases (Homo sapiens, UniProt Q8NEV4); settings: MYO3A; 1 μM
[33] = target: broad panel of kinases (Homo sapiens, UniProt Q9HCP0); settings: CSNK1G1; 1 μM
[34] = target: broad panel of kinases (Homo sapiens, UniProt P42336, C420R); settings: PIK3CA(C420R); 1 μM
[35] = target: broad panel of kinases (Homo sapiens, UniProt P49674); settings: CSNK1E; 1 μM
[36] = target: broad panel of kinases (Homo sapiens, UniProt P07949, M918T); settings: RET(M918T); 1 μM
[37] = target: broad panel of kinases (Homo sapiens, UniProt Q15569); settings: TESK1; 1 μM

Sequence of broad panel of kinases (Homo sapiens, UniProt P36888) (P36888 27-993 limits assumed): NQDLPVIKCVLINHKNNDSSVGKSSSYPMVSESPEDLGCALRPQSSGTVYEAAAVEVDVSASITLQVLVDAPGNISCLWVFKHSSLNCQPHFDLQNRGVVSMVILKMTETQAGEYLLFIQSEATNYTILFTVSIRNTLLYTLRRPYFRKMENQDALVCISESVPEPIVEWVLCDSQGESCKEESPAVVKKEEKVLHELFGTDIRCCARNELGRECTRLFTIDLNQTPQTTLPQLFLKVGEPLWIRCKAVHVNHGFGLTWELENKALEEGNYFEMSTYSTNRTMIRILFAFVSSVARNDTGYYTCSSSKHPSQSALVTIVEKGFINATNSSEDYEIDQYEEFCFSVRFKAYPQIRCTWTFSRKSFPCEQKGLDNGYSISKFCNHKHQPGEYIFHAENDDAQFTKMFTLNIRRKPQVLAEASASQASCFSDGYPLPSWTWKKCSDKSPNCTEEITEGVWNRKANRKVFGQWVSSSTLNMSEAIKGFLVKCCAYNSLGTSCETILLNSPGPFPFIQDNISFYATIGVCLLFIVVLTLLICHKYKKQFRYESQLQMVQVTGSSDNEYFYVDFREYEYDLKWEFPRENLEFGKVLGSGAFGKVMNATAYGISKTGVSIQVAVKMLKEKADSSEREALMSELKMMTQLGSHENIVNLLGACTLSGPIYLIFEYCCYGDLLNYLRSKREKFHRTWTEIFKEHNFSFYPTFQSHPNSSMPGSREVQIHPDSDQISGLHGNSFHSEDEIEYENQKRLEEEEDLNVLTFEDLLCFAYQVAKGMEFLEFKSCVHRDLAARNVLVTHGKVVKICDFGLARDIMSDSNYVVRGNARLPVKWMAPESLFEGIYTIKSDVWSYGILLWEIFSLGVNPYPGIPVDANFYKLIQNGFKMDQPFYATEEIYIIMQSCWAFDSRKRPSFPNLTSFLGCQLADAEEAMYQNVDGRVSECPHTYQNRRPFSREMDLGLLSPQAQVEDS
Sequence of broad panel of kinases (Homo sapiens, UniProt Q13976) (Q13976 2-671 limits assumed): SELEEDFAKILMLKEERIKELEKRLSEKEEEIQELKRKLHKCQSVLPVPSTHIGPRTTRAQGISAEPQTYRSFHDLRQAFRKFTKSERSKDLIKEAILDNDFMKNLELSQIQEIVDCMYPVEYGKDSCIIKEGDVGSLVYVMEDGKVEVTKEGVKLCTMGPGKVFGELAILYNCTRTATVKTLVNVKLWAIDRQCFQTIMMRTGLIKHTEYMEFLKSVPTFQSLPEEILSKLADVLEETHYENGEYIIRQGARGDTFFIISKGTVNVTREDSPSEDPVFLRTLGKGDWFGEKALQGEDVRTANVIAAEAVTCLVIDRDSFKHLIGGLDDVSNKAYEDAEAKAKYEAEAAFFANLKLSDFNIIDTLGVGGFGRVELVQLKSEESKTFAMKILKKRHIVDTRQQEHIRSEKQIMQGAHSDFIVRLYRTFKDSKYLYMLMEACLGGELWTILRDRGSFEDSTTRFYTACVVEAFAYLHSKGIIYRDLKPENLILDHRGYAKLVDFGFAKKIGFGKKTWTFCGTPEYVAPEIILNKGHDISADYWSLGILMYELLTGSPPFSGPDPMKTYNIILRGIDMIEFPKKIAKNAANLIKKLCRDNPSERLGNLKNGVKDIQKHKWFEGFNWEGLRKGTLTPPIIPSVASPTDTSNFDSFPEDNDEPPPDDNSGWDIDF
Sequence of broad panel of kinases (Homo sapiens, UniProt Q8TBX8) (Q8TBX8 2-421 limits assumed): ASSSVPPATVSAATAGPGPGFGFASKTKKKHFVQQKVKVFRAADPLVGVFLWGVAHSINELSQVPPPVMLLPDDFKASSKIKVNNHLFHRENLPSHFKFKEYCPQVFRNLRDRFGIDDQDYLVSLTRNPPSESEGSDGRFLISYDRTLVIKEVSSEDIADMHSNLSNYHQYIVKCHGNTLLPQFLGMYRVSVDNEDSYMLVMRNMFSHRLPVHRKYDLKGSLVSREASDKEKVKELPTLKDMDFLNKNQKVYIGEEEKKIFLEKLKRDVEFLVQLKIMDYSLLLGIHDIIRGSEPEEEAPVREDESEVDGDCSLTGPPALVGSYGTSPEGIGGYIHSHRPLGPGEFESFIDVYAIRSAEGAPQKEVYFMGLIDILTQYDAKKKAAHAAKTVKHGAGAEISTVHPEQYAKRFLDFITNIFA
Sequence of broad panel of kinases (Homo sapiens, UniProt P08069) (P08069 31-736 limits assumed): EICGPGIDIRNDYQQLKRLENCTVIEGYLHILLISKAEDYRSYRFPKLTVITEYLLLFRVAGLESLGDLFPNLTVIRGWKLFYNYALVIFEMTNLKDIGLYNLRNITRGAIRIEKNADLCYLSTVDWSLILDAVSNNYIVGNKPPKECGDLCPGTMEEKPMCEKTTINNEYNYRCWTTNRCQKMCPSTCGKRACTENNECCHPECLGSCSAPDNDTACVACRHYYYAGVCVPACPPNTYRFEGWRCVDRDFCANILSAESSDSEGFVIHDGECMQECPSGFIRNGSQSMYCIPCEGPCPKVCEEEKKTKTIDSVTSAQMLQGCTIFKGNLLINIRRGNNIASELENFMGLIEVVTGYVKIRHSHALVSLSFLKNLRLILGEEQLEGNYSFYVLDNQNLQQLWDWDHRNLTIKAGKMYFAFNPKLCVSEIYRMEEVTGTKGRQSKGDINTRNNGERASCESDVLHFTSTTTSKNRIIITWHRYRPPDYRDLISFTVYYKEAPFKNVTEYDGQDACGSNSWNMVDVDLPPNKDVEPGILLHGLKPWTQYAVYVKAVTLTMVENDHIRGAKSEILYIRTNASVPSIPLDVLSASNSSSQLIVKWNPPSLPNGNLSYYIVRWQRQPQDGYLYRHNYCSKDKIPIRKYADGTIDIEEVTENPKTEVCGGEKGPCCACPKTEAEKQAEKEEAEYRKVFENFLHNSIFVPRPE
Sequence of broad panel of kinases (Homo sapiens, UniProt P08069) (P08069 741-1367 limits assumed): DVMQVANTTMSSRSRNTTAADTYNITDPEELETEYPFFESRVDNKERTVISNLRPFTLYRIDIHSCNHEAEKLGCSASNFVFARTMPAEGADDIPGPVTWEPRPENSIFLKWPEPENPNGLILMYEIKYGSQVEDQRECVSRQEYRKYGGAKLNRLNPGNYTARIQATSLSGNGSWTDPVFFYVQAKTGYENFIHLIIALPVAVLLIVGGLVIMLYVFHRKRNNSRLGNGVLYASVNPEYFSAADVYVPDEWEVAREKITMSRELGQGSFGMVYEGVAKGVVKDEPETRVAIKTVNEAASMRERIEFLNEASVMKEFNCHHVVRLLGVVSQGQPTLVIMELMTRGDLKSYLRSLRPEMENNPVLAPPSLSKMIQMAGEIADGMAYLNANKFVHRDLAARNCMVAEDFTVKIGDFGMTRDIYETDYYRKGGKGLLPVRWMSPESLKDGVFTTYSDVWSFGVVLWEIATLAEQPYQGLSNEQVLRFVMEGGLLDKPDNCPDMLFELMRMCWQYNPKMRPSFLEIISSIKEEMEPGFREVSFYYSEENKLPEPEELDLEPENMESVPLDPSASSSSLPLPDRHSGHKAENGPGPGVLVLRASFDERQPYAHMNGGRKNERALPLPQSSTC
Sequence of broad panel of kinases (Homo sapiens, UniProt P37173) (P37173 23-567 limits assumed): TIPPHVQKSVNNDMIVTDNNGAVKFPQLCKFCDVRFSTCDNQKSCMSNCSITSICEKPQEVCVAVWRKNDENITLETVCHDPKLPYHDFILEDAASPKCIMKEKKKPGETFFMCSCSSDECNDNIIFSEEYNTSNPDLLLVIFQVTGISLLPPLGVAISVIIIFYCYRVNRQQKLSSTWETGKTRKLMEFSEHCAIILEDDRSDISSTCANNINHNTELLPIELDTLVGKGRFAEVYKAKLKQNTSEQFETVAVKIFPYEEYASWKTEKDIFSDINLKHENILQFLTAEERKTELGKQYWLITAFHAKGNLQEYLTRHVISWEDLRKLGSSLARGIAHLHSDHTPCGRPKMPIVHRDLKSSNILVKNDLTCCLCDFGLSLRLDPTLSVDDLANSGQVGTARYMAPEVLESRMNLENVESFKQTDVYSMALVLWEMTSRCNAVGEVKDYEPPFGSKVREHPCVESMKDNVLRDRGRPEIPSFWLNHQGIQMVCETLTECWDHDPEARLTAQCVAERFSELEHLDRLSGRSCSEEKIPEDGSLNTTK
Sequence of broad panel of kinases (Homo sapiens, UniProt Q08345) (Q08345 19-913 limits assumed): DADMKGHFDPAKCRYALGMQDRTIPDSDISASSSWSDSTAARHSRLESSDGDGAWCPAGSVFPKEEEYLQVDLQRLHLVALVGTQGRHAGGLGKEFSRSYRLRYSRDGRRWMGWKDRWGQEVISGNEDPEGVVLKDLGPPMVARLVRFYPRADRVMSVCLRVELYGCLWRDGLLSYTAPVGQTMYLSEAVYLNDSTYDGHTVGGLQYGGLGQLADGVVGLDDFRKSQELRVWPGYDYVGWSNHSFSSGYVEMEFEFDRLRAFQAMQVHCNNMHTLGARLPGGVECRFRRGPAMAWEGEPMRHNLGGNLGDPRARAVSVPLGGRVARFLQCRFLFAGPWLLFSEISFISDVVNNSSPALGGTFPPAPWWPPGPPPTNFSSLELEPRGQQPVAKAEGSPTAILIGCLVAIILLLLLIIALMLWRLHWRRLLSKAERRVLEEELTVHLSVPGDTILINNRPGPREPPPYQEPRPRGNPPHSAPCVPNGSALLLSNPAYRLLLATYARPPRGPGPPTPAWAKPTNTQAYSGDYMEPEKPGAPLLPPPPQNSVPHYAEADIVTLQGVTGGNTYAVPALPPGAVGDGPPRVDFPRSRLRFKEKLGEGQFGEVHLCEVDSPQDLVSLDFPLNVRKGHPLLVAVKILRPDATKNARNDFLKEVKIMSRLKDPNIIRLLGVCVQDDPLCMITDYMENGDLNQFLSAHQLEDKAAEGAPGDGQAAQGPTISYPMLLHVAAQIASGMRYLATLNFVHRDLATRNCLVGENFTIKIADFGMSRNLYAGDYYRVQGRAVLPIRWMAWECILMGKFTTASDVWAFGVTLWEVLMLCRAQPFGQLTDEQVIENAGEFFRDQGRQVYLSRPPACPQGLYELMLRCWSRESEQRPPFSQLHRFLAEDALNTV

With C=CC(=O)N1CC[C@H](Nc2nc(CN3CCOCC3)cc(Nc3ncc(C(=O)Nc4c(C)cccc4C)s3)n2)C1 [Example I-2] the “percent of control binding remaining (lower = stronger binding)” value [1] was 0%, the “percent of control binding remaining (lower = stronger binding)” value [2] was 94% and the “percent of control binding remaining (lower = stronger binding)” value [3] was 100%. The “percent of control binding remaining (lower = stronger binding)” value [4] was 100%, the “percent of control binding remaining (lower = stronger binding)” value [5] was 100% and the “percent of control binding remaining (lower = stronger binding)” value ([6]; FLT3-autoinhibited) was 100%. For the same compound, the “percent of control binding remaining (lower = stronger binding)” value ([6]; FLT3) was 100%, the “percent of control binding remaining (lower = stronger binding)” value [7] was 81% and the “percent of control binding remaining (lower = stronger binding)” value [8] was 100%. The “percent of control binding remaining (lower = stronger binding)” value [9] was 0.3%, the “percent of control binding remaining (lower = stronger binding)” value [10] was 100% and the “percent of control binding remaining (lower = stronger binding)” value [11] was 91%. For the same compound, the “percent of control binding remaining (lower = stronger binding)” value [12] was 100%, the “percent of control binding remaining (lower = stronger binding)” value [13] was 89% and the “percent of control binding remaining (lower = stronger binding)” value [14] was 65%. For the same compound, the “percent of control binding remaining (lower = stronger binding)” value [15] was 0.1%, the “percent of control binding remaining (lower = stronger binding)” value [16] was 0% and the “percent of control binding remaining (lower = stronger binding)” value [17] was 0.2%. For the same compound, the “percent of control binding remaining (lower = stronger binding)” value ([18]; RSK4(Kin.Dom.1-N-terminal)) was 100%, the “percent of control binding remaining (lower = stronger binding)” value ([18]; RSK4(Kin.Dom.2-C-terminal)) was 100% and the “percent of control binding remaining (lower = stronger binding)” value [19] was 0.45%. For the same compound, the “percent of control binding remaining (lower = stronger binding)” value [20] was 100%, the “percent of control binding remaining (lower = stronger binding)” value [21] was 96% and the “percent of control binding remaining (lower = stronger binding)” value [22] was 100%. For the same compound, the “percent of control binding remaining (lower = stronger binding)” value [23] was 100%, the “percent of control binding remaining (lower = stronger binding)” value [24] was 94% and the “percent of control binding remaining (lower = stronger binding)” value [25] was 93%. For the same compound, the “percent of control binding remaining (lower = stronger binding)” value [26] was 78%, the “percent of control binding remaining (lower = stronger binding)” value [27] was 95% and the “percent of control binding remaining (lower = stronger binding)” value [28] was 97%. For the same compound, the “percent of control binding remaining (lower = stronger binding)” value [29] was 91%, the “percent of control binding remaining (lower = stronger binding)” value [30] was 100% and the “percent of control binding remaining (lower = stronger binding)” value [31] was 100%. The “percent of control binding remaining (lower = stronger binding)” value [32] was 93%, the “percent of control binding remaining (lower = stronger binding)” value [33] was 100% and the “percent of control binding remaining (lower = stronger binding)” value [34] was 100%. The “percent of control binding remaining (lower = stronger binding)” value [35] was 84%, the “percent of control binding remaining (lower = stronger binding)” value [36] was 92% and the “percent of control binding remaining (lower = stronger binding)” value [37] was 60%.

With C=CC(=O)N1CC[C@H](Nc2nccc(Nc3ncc(C(=O)Nc4c(C)cccc4C)s3)n2)C1 [Example I-3] the “percent of control binding remaining (lower = stronger binding)” value [1] was 0.05%, the “percent of control binding remaining (lower = stronger binding)” value [2] was 100% and the “percent of control binding remaining (lower = stronger binding)” value [3] was 81%. The “percent of control binding remaining (lower = stronger binding)” value [4] was 98%, the “percent of control binding remaining (lower = stronger binding)” value [5] was 100% and the “percent of control binding remaining (lower = stronger binding)” value ([6]; FLT3-autoinhibited) was 100%. For the same compound, the “percent of control binding remaining (lower = stronger binding)” value ([6]; FLT3) was 84%, the “percent of control binding remaining (lower = stronger binding)” value [7] was 81% and the “percent of control binding remaining (lower = stronger binding)” value [8] was 100%. For the same compound, the “percent of control binding remaining (lower = stronger binding)” value [9] was 0.5%, the “percent of control binding remaining (lower = stronger binding)” value [10] was 95% and the “percent of control binding remaining (lower = stronger binding)” value [11] was 84%. The “percent of control binding remaining (lower = stronger binding)” value [12] was 100%, the “percent of control binding remaining (lower = stronger binding)” value [13] was 94% and the “percent of control binding remaining (lower = stronger binding)” value [14] was 88%. For the same compound, the “percent of control binding remaining (lower = stronger binding)” value [15] was 0.2%, the “percent of control binding remaining (lower = stronger binding)” value [16] was 0% and the “percent of control binding remaining (lower = stronger binding)” value [17] was 0.15%. For the same compound, the “percent of control binding remaining (lower = stronger binding)” value ([18]; RSK4(Kin.Dom.1-N-terminal)) was 100%, the “percent of control binding remaining (lower = stronger binding)” value ([18]; RSK4(Kin.Dom.2-C-terminal)) was 97% and the “% change compared to control” value [19] was 0.5%. The “percent of control binding remaining (lower = stronger binding)” value [20] was 100%, the “percent of control binding remaining (lower = stronger binding)” value [21] was 97% and the “percent of control binding remaining (lower = stronger binding)” value [22] was 100%. For the same compound, the “percent of control binding remaining (lower = stronger binding)” value [23] was 100%, the “percent of control binding remaining (lower = stronger binding)” value [24] was 100% and the “percent of control binding remaining (lower = stronger binding)” value [25] was 94%. The “percent of control binding remaining (lower = stronger binding)” value [26] was 100%, the “percent of control binding remaining (lower = stronger binding)” value [27] was 95% and the “percent of control binding remaining (lower = stronger binding)” value [28] was 100%. For the same compound, the “percent of control binding remaining (lower = stronger binding)” value [29] was 97%, the “percent of control binding remaining (lower = stronger binding)” value [30] was 100% and the “percent of control binding remaining (lower = stronger binding)” value [31] was 100%. For the same compound, the “percent of control binding remaining (lower = stronger binding)” value [32] was 96%, the “percent of control binding remaining (lower = stronger binding)” value [33] was 100% and the “percent of control binding remaining (lower = stronger binding)” value [34] was 99%. The “percent of control binding remaining (lower = stronger binding)” value [35] was 96%, the “percent of control binding remaining (lower = stronger binding)” value [36] was 99% and the “percent of control binding remaining (lower = stronger binding)” value [37] was 88%.
